Source: US8586611B2 (priority 2005, dated 2013)

Experiments:
Format in all cases: in vivo
[1] = system: Plasmopara viticola; experiment: Test B: grape downy mildew, spray 24 h after inoculation (disease rating, 100 = 100% disease control); details: sprayed 24 h after inoculation
In short: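 Grape seedlings were inoculated with Plasmopara viticola and held 24 h saturated at 20 °C, then sprayed to run-off with compound suspension (acetone/water with 250 ppm Trem 014; 200 ppm ≈ 500 g/ha). After 5 days at 20 °C and 24 h saturation, disease was rated from 0 to 100% control versus untreated.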

[2] = system: Phytophthora infestans; experiment: whole plant or invertebrate; details: tomato late blight, sprayed the day before inoculation
[3] = system: Phytophthora infestans; experiment: whole plant or invertebrate; details: tomato late blight, sprayed 17 h after inoculation
[4] = system: Erysiphe graminis f. sp. tritici; experiment: Test E: wheat powdery mildew, spray the day before inoculation (disease rating, 100 = 100% disease control); details: sprayed the day before inoculation, 7 days at 20° C.
In short: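 Wheat seedlings sprayed to run-off with compound suspended in acetone/water 50/50 with 250 ppm Trem 014 (200 ppm equivalent to 500 g/ha); inoculated next day with Erysiphe graminis f. sp. tritici spore dust. Kept 7 days at 20° C, then rated 0–100% disease control versus controls.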

[5] = unmarked compounds (no asterisk, not 40 or 10 ppm)

C[C@@H](NC(=O)c1csc(C2CCN(C(=O)Cc3cccc(Br)c3)CC2)n1)c1ccccc1F [compound 276]
Test B disease rating (100 = 100% disease control, 0 = no disease control) [1, 5]: 30
Test C disease rating (100 = 100% disease control, 0 = no disease control) [2, 5]: 17
Test D disease rating (100 = 100% disease control, 0 = no disease control) [3, 5]: 0
Test E disease rating (100 = 100% disease control, 0 = no disease control) [4, 5]: 0

C[C@@H](NC(=O)c1csc(C2CCN(C(=O)Cc3cccc(Br)c3)CC2)n1)c1cccc(C(F)(F)F)c1 [compound 277]
Test B disease rating (100 = 100% disease control, 0 = no disease control) [1, 5]: 15
Test C disease rating (100 = 100% disease control, 0 = no disease control) [2, 5]: 9
Test D disease rating (100 = 100% disease control, 0 = no disease control) [3, 5]: 0
Test E disease rating (100 = 100% disease control, 0 = no disease control) [4, 5]: 0

C[C@@H](NC(=O)c1csc(C2CCN(C(=O)Cc3cccc(Br)c3)CC2)n1)c1ccc(Cl)cc1 [compound 280]
Test B disease rating (100 = 100% disease control, 0 = no disease control) [1, 5]: 0
Test C disease rating (100 = 100% disease control, 0 = no disease control) [2, 5]: 24
Test D disease rating (100 = 100% disease control, 0 = no disease control) [3, 5]: 0
Test E disease rating (100 = 100% disease control, 0 = no disease control) [4, 5]: 0

COc1cccc([C@@H](C)NC(=O)c2csc(C3CCN(C(=O)Cc4cccc(Br)c4)CC3)n2)c1 [compound 281]
Test B disease rating (100 = 100% disease control, 0 = no disease control) [1, 5]: 15
Test C disease rating (100 = 100% disease control, 0 = no disease control) [2, 5]: 0
Test D disease rating (100 = 100% disease control, 0 = no disease control) [3, 5]: 0
Test E disease rating (100 = 100% disease control, 0 = no disease control) [4, 5]: 0

C=CCN(C(=O)c1csc(C2CCN(C(=O)Cc3cc(C)ccc3C)CC2)n1)[C@H](C)c1ccccc1 [compound 284]
Test B disease rating (100 = 100% disease control, 0 = no disease control) [1, 5]: 10
Test C disease rating (100 = 100% disease control, 0 = no disease control) [2, 5]: 21
Test D disease rating (100 = 100% disease control, 0 = no disease control) [3, 5]: 0
Test E disease rating (100 = 100% disease control, 0 = no disease control) [4, 5]: 0

Cc1ccc(C)c(CC(=O)N2CCC(c3nc(C(=O)N(C(C)C)[C@H](C)c4ccccc4)cs3)CC2)c1 [compound 285]
Test B disease rating (100 = 100% disease control, 0 = no disease control) [1, 5]: 10
Test C disease rating (100 = 100% disease control, 0 = no disease control) [2, 5]: 25
Test D disease rating (100 = 100% disease control, 0 = no disease control) [3, 5]: 0
Test E disease rating (100 = 100% disease control, 0 = no disease control) [4, 5]: 0

CCN(C(=O)c1csc(C2CCN(C(=O)Cc3cc(C)ccc3C)CC2)n1)[C@H](C)c1ccccc1 [compound 286]
Test B disease rating (100 = 100% disease control, 0 = no disease control) [1, 5]: 39
Test C disease rating (100 = 100% disease control, 0 = no disease control) [2, 5]: 23
Test D disease rating (100 = 100% disease control, 0 = no disease control) [3, 5]: 0
Test E disease rating (100 = 100% disease control, 0 = no disease control) [4, 5]: 52

CCCN(C(=O)c1csc(C2CCN(C(=O)Cc3cc(C)ccc3C)CC2)n1)[C@H](C)c1ccccc1 [compound 287]
Test B disease rating (100 = 100% disease control, 0 = no disease control) [1, 5]: 0
Test C disease rating (100 = 100% disease control, 0 = no disease control) [2, 5]: 50
Test D disease rating (100 = 100% disease control, 0 = no disease control) [3, 5]: 0
Test E disease rating (100 = 100% disease control, 0 = no disease control) [4, 5]: 0

Cc1cc(C(F)(F)F)nn1CC(=O)N1CCC(c2nc(C(=O)N3CCCC3c3ccc(Cl)cc3)cs2)CC1 (stereo not drawn) [compound 290]
Test B disease rating (100 = 100% disease control, 0 = no disease control) [1, 5]: 0
Test C disease rating (100 = 100% disease control, 0 = no disease control) [2, 5]: 90
Test D disease rating (100 = 100% disease control, 0 = no disease control) [3, 5]: 26
Test E disease rating (100 = 100% disease control, 0 = no disease control) [4, 5]: 0

Cc1cc(C(F)(F)F)nn1CC(=O)N1C(C)CN(c2nc(C(=O)N(C)[C@@H]3CCCc4ccccc43)cs2)CC1C (stereo partly drawn) [compound 292]
Test B disease rating (100 = 100% disease control, 0 = no disease control) [1, 5]: 71
Test C disease rating (100 = 100% disease control, 0 = no disease control) [2, 5]: 100
Test D disease rating (100 = 100% disease control, 0 = no disease control) [3, 5]: 93
Test E disease rating (100 = 100% disease control, 0 = no disease control) [4, 5]: 0

Cc1cc(C(F)(F)F)nn1CC(=O)N1CCN(c2nc(C(=O)N(C)[C@@H]3CCCc4ccccc43)cs2)CC1C (stereo partly drawn) [compound 293]
Test B disease rating (100 = 100% disease control, 0 = no disease control) [1, 5]: 100
Test C disease rating (100 = 100% disease control, 0 = no disease control) [2, 5]: 100
Test D disease rating (100 = 100% disease control, 0 = no disease control) [3, 5]: 99
Test E disease rating (100 = 100% disease control, 0 = no disease control) [4, 5]: 0

Cc1cc(C(F)(F)F)nn1CC(=O)N1CCC(c2nc(C(=O)NC3CCCc4ccccc43)cs2)CC1 (stereo not drawn) [compound 294]
Test B disease rating (100 = 100% disease control, 0 = no disease control) [1, 5]: 99
Test C disease rating (100 = 100% disease control, 0 = no disease control) [2, 5]: 100
Test D disease rating (100 = 100% disease control, 0 = no disease control) [3, 5]: 96
Test E disease rating (100 = 100% disease control, 0 = no disease control) [4, 5]: 0

Cc1cc(C(F)(F)F)nn1CC(=O)N1CCC(c2nc(C(=O)N3Cc4ccccc4C3)cs2)CC1 [compound 295]
Test B disease rating (100 = 100% disease control, 0 = no disease control) [1, 5]: 39
Test C disease rating (100 = 100% disease control, 0 = no disease control) [2, 5]: 95
Test D disease rating (100 = 100% disease control, 0 = no disease control) [3, 5]: 39
Test E disease rating (100 = 100% disease control, 0 = no disease control) [4, 5]: 0

Cc1cc(C(F)(F)F)nn1CC(=O)N1CCC(c2nc(C(=O)N3CCc4ccccc4C3)cs2)CC1 [compound 296]
Test B disease rating (100 = 100% disease control, 0 = no disease control) [1, 5]: 82
Test C disease rating (100 = 100% disease control, 0 = no disease control) [2, 5]: 100
Test D disease rating (100 = 100% disease control, 0 = no disease control) [3, 5]: 93
Test E disease rating (100 = 100% disease control, 0 = no disease control) [4, 5]: 0

COc1cc2c(cc1OC)CN(C(=O)c1csc(C3CCN(C(=O)Cn4nc(C(F)(F)F)cc4C)CC3)n1)CC2 [compound 297]
Test B disease rating (100 = 100% disease control, 0 = no disease control) [1, 5]: 39
Test C disease rating (100 = 100% disease control, 0 = no disease control) [2, 5]: 63
Test D disease rating (100 = 100% disease control, 0 = no disease control) [3, 5]: 33
Test E disease rating (100 = 100% disease control, 0 = no disease control) [4, 5]: 0

Cc1cc(C(F)(F)F)nn1CC(=O)N1CCC(c2nc(C(=O)N3Cc4ccccc4C3C)cs2)CC1 (stereo not drawn) [compound 298]
Test B disease rating (100 = 100% disease control, 0 = no disease control) ([1]; tested at 10 ppm (**)): 57
Test C disease rating (100 = 100% disease control, 0 = no disease control) ([2]; tested at 10 ppm (**)): 80
Test D disease rating (100 = 100% disease control, 0 = no disease control) ([3]; tested at 10 ppm (**)): 0
Test E disease rating (100 = 100% disease control, 0 = no disease control) ([4]; tested at 10 ppm (**)): 0

Cc1cc(C(F)(F)F)nn1CC(=O)N1CCC(c2nc(C(=O)N3CCC4CCCCC4C3)cs2)CC1 (stereo not drawn) [compound 299]
Test B disease rating (100 = 100% disease control, 0 = no disease control) [1, 5]: 83
Test C disease rating (100 = 100% disease control, 0 = no disease control) [2, 5]: 99
Test D disease rating (100 = 100% disease control, 0 = no disease control) [3, 5]: 96
Test E disease rating (100 = 100% disease control, 0 = no disease control) [4, 5]: 0

Cc1cc(C(F)(F)F)nn1CC(=O)N1CCC(c2nc(C(=O)N3CCCC4CCCCC43)cs2)CC1 (stereo not drawn) [compound 300]
Test B disease rating (100 = 100% disease control, 0 = no disease control) [1, 5]: 62
Test C disease rating (100 = 100% disease control, 0 = no disease control) [2, 5]: 97
Test D disease rating (100 = 100% disease control, 0 = no disease control) [3, 5]: 58
Test E disease rating (100 = 100% disease control, 0 = no disease control) [4, 5]: 0

Cc1cc(C(F)(F)F)nn1CC(=O)N1CCC(c2nc(C(=O)N3CCCCC3)cs2)CC1 [compound 307]
Test B disease rating (100 = 100% disease control, 0 = no disease control) [1, 5]: 79
Test C disease rating (100 = 100% disease control, 0 = no disease control) [2, 5]: 100
Test D disease rating (100 = 100% disease control, 0 = no disease control) [3, 5]: 26
Test E disease rating (100 = 100% disease control, 0 = no disease control) [4, 5]: 0

Cc1cc(C(F)(F)F)nn1CC(=O)N1CCC(c2nc(C(=O)N3CCC(C)CC3)cs2)CC1 [compound 308]
Test B disease rating (100 = 100% disease control, 0 = no disease control) [1, 5]: 98
Test C disease rating (100 = 100% disease control, 0 = no disease control) [2, 5]: 100
Test D disease rating (100 = 100% disease control, 0 = no disease control) [3, 5]: 93
Test E disease rating (100 = 100% disease control, 0 = no disease control) [4, 5]: 0

Cc1cc(C(F)(F)F)nn1CC(=O)N1CCC(c2nc(C(=O)N3CCC(C)(C)CC3)cs2)CC1 [compound 309]
Test B disease rating (100 = 100% disease control, 0 = no disease control) [1, 5]: 96
Test C disease rating (100 = 100% disease control, 0 = no disease control) [2, 5]: 100
Test D disease rating (100 = 100% disease control, 0 = no disease control) [3, 5]: 83
Test E disease rating (100 = 100% disease control, 0 = no disease control) [4, 5]: 0
